According to ChEMBL document CHEMBL1201862, “PubChem BioAssay data set” (2004):
Active and inactive are the calls of the source.

Assays:
[1] = biological target: Glucose-6-phosphate 1-dehydrogenase (Homo sapiens, UniProt P11413); experiment: inhibition of Homo sapiens G6PD, dose series – biochemical, fluorescence, selectivity assay for P. falciparum G6PD inhibitor project, dose response (AID 504792); format: functional
[2] = biological target: ELAV-like protein 1 (Homo sapiens, UniProt Q15717); experiment: Identify HuR specific inhibitors.; format: functional
Sequence of ELAV-like protein 1 (Q15717 whole entry): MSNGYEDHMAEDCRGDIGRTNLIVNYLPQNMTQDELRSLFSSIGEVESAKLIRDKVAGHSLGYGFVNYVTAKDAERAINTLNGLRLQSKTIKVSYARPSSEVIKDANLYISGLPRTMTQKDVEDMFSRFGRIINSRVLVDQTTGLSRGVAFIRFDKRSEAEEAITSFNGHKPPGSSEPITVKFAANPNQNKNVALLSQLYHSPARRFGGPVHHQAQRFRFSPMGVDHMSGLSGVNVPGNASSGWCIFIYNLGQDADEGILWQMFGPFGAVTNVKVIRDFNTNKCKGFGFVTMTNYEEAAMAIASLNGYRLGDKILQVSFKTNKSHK

[3] = biological target: T1, Small ubiquitin-related modifier 1 (Homo sapiens, UniProt P63165); experiment: SUMO1 protein-protein binding blockers, potency – biochemical, FRET, dose response (AID 624383); format: functional; settings: read-out: IC50_Mean
T1 sequence (P63165 whole entry): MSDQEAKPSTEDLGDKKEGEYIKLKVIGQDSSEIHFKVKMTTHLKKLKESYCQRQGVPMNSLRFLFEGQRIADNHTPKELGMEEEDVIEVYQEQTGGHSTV

[4] = biological target: Genome polyprotein (dengue virus type 2, UniProt P29990); experiment: flavivirus cap methylation enzyme inhibition – biochemical, confirmation dose response, primary screen (AID 588689); format: functional
Sequence of Genome polyprotein (P29990 2492-3391 limits assumed): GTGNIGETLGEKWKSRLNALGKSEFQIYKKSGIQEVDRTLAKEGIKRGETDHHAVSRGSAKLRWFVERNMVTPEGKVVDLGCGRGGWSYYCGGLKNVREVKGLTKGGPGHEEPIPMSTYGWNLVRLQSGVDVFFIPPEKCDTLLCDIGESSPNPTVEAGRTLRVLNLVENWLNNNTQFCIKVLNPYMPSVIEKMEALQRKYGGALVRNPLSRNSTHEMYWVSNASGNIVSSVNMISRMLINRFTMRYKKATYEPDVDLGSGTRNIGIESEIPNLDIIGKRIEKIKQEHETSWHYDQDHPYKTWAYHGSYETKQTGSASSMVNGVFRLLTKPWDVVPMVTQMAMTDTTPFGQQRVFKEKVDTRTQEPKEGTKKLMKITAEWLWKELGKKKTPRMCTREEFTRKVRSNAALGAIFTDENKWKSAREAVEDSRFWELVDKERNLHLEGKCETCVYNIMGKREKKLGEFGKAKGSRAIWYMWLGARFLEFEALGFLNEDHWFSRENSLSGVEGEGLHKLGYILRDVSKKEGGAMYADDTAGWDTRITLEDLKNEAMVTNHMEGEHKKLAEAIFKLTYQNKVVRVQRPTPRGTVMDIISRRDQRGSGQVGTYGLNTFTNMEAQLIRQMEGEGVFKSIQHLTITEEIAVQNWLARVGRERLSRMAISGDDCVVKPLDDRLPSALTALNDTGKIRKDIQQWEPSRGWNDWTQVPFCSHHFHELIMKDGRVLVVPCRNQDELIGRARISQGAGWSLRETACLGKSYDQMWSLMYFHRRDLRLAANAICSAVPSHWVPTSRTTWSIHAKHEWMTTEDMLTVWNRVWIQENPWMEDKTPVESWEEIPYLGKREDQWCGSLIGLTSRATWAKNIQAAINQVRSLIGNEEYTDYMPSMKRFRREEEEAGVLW

[5] = biological target: Keap1/Nrf2 (Homo sapiens, UniProt Q14145); experiment: disruptors of Keap1 binding to Nrf2 peptide – biochemical, fluorescence polarization, cherry-picked samples, dose response (AID 588683)
Sequence of Keap1/Nrf2 (Q16236 whole entry): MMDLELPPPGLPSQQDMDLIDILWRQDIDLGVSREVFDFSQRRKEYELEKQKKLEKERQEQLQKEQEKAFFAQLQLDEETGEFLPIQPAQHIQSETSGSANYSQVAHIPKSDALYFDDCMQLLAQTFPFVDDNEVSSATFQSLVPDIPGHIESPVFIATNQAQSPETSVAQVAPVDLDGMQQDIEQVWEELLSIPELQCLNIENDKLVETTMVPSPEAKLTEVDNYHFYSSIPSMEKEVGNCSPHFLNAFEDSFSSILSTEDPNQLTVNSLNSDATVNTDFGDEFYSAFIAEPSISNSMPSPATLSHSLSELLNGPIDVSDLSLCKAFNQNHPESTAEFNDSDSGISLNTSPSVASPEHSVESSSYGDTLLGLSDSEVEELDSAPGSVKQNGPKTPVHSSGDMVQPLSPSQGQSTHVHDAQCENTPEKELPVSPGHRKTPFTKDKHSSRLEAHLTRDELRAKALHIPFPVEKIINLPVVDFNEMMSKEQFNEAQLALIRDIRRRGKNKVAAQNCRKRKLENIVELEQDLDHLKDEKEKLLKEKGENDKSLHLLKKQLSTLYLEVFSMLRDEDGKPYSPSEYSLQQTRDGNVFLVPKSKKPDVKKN
Sequence of Keap1/Nrf2 (Q14145 whole entry): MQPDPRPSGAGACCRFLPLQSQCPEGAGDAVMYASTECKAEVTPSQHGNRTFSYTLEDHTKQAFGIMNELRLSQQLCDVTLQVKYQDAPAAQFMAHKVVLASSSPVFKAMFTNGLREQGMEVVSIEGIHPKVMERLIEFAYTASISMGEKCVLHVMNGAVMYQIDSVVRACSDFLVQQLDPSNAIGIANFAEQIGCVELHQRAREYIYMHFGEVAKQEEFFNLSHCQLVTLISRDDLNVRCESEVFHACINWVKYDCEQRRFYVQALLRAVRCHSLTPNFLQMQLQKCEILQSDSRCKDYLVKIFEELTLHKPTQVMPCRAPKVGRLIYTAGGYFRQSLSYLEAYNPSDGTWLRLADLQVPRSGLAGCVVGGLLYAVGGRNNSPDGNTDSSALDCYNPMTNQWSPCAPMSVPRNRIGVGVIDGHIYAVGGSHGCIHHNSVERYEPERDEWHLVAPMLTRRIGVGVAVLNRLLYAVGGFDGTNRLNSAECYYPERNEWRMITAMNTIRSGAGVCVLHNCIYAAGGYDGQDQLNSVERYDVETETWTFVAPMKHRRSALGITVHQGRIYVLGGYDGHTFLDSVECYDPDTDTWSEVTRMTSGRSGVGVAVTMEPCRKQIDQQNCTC

[6] = biological target: T2, Histone-lysine N-methyltransferase NSD2 (Homo sapiens, UniProt O96028); format: biochemical
T2 sequence (O96028 whole entry): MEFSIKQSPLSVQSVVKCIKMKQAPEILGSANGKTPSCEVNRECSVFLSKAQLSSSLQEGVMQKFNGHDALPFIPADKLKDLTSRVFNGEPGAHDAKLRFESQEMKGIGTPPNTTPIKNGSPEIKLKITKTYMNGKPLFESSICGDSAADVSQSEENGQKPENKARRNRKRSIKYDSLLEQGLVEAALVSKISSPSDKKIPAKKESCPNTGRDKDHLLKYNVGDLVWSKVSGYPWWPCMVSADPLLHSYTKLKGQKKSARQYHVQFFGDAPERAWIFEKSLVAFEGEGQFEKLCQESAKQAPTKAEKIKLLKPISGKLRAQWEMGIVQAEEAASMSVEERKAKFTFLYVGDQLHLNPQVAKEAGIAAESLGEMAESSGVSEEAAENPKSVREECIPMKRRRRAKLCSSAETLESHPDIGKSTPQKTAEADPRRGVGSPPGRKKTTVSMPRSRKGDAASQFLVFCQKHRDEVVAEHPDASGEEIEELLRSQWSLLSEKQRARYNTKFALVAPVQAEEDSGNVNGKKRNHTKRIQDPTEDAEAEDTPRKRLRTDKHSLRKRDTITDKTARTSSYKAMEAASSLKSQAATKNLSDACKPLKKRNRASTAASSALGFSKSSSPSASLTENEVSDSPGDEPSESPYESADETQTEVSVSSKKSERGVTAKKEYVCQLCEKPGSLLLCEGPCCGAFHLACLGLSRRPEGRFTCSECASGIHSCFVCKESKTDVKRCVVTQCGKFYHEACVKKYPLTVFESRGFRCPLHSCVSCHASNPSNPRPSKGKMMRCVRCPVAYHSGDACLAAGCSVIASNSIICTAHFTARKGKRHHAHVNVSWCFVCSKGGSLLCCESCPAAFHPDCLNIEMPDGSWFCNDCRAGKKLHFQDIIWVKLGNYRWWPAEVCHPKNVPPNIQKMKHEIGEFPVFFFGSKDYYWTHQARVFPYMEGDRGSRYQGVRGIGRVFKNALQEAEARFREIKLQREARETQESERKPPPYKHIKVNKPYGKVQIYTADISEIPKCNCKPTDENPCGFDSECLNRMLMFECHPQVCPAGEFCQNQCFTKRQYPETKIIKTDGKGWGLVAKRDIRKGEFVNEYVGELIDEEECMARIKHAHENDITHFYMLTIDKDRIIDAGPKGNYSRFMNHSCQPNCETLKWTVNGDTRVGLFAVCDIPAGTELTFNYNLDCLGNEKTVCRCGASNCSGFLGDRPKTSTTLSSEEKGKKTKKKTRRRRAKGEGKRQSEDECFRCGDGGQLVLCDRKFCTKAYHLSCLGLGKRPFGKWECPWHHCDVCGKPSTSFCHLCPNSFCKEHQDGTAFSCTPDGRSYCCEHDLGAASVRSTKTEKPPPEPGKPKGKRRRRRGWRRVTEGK

[7] = biological target: T1, Small ubiquitin-related modifier 1; experiment: SUMO1 protein interaction blockers, potency – biochemical, fluorescence polarization, uHTS hits, dose response (AID 624382); format: functional; settings: read-out: IC50_Mean
[8] = test system: HeLa; experiment: viability loss in HeLa cells – cell-based, 24 h, cherry-picked samples, cytotoxicity control, dose response (AID 504726); format: functional; settings: Homo sapiens;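 note: potency for cytotoxicity as loss of luminescence signal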
[9] = biological target: RNA-editing ligase 1, mitochondrial (Trypanosoma brucei brucei, UniProt P86926); experiment: inhibition of trypanosome RNA editing ligase – biochemical, fluorescence, Trypanosoma brucei, dose response (AID 1117295); format: functional
Sequence of RNA-editing ligase 1, mitochondrial (P86926 whole entry): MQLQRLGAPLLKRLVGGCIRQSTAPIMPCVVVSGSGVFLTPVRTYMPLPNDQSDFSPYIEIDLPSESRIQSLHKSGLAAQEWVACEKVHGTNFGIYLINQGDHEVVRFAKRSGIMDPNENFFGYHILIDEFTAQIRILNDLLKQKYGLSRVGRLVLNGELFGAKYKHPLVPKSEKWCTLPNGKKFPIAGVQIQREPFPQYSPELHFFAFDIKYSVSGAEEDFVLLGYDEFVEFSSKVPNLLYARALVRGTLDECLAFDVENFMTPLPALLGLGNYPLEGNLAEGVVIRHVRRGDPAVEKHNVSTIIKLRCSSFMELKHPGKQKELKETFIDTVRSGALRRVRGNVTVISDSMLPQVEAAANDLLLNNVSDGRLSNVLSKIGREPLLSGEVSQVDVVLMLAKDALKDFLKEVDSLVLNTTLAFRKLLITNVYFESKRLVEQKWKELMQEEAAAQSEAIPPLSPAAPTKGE

[10] = biological target: T3, Rac GTPase-activating protein 1 (Homo sapiens, UniProt Q9H0H5); experiment: blockers of MgcRacGAP-driven Rac1 GTP hydrolysis – biochemical, ADP Hunter fluorescence, primary and confirmatory, confirmation (AID 624330); format: functional
T3 sequence (Q9H0H5 whole entry): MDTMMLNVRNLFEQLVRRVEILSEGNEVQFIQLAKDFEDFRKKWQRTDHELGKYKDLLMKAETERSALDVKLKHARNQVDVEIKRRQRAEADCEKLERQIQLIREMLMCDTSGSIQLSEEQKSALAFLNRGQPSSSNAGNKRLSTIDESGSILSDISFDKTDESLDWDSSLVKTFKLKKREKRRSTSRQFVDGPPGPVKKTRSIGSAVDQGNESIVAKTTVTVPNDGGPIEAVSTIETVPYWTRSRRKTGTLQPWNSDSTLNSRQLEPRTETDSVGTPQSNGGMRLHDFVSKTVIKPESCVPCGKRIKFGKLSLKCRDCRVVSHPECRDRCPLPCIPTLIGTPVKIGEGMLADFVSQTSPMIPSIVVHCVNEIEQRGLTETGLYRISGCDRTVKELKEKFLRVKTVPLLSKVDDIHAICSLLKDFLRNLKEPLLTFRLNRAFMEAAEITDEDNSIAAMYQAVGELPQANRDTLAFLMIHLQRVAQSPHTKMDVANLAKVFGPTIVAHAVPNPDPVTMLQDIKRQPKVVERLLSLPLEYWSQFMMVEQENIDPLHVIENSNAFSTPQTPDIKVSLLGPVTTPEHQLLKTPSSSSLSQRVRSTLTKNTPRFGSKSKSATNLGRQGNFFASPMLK

[11] = biological target: ORF 73 (Human herpesvirus 8, UniProt O40947); experiment: KSHV LANA DNA-binding disruption – biochemical, fluorescence polarization, cherry-picked samples, dose response (AID 504725); parameters: species or system Human gammaherpesvirus 8;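 note: fluorescence polarization of a labeled DNA duplex reporting LANA DNA binding; potency is for inhibitors that block LANA binding to the DNA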
Sequence of ORF 73 (O40947 whole entry): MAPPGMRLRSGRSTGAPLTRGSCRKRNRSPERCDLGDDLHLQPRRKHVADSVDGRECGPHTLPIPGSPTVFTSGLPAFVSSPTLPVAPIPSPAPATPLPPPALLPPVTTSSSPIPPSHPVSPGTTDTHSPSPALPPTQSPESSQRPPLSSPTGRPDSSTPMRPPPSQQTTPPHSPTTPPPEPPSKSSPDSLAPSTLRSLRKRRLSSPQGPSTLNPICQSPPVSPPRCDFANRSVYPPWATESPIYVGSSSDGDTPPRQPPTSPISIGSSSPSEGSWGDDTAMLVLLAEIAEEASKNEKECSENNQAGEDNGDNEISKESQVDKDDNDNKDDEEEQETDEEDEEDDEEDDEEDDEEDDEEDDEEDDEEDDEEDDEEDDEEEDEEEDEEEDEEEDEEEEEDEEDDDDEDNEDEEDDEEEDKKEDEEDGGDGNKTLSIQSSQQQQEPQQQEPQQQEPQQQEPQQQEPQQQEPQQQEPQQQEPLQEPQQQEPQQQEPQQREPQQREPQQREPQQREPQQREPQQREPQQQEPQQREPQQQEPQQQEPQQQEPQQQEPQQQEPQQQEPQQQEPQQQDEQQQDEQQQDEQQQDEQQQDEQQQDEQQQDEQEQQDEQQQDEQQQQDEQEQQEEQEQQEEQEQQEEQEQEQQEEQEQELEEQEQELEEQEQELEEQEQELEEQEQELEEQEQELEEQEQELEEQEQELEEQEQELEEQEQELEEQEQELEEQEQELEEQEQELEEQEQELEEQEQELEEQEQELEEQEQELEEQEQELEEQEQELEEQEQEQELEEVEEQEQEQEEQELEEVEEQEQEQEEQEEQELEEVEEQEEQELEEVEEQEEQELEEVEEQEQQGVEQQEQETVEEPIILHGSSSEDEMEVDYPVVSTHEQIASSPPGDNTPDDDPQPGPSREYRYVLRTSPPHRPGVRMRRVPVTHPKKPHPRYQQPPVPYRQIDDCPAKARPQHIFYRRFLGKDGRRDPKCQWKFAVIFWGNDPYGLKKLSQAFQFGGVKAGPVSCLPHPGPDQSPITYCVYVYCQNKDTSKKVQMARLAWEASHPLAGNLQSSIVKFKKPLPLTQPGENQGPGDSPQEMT

[12] = test system: Candida albicans; experiment: Candida growth inhibition combined with fluconazole – CaCi-2 strain, Alamar Blue, dry powder, set 3, dose response (AID 488907); format: functional, organism-based
[13] = test system: Jurkat; experiment: blockers of NF-kB activation in T cells – Jurkat, luciferase reporter, luminescence, B- and T-cell, dose response (AID 489004); format: functional, cell-based; settings: Homo sapiens;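 note: NF-kB luciferase reporter Jurkat cells stimulated with PMA plus ionomycin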
[14] = HEK-293T viability loss, compound-treated – cell-based, uHTS hits, cytotoxicity control for B/T-cell NF-kB inhibitor project, dose response (AID 489019); format: functional;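 note: IC50 reflects cytotoxicity as loss of cell viability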
[15] = Luminescence Cell-Based Dose Response HTS to Identify Inhibitors of 5'UTR Stem-Loop Driven Prion Protein mRNA Translation in H4 Neuroglioblastoma Cells. [Related pubchem assays: 1827 (Project Summary), 1813 (Primary HTS)]; format: functional
[16] = NIH-3T3 fibroblast cytotoxicity, dose response, cytotoxicity control, cell-based, fluorescence, Alamar Blue, secondary assay (AID 2327); format: functional;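 note: NIH-3T3 mouse fibroblasts cultured with fluconazole at 8 µg/mL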
[17] = biological target: T4, Microphthalmia-associated transcription factor (Homo sapiens, UniProt O75030); experiment: reducers of TRPM1 reporter luminescence, concentration series – cell-based, SK-MEL-5, cherry-picked, set 3, MITF inhibitor project, dose response (AID 493073); format: functional;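 note: SK-MEL-5 melanoma cells with luciferase driven by the MITF target TRPM1 promoter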
T4 sequence (O75030 whole entry): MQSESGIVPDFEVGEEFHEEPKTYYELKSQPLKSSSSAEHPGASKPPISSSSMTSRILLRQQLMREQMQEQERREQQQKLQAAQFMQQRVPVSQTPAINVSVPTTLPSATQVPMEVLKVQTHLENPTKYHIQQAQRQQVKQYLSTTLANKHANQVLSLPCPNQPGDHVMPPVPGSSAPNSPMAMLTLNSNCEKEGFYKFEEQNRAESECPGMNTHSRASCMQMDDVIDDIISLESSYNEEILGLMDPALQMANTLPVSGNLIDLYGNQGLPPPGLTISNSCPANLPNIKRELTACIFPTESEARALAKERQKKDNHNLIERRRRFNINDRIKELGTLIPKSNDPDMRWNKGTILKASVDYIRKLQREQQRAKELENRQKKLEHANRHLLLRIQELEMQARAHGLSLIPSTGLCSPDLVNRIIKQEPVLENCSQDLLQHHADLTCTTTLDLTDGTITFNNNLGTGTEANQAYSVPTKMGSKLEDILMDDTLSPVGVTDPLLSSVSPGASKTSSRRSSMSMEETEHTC

[18] = fluconazole-exposed Candida albicans growth modulators – fluorescence, retest, confirmation (AID 2467); format: functional, cell-based
[19] = luciferase reporter signal suppression in cells – H4 neuroglioma cells, luminescence, dose response (AID 1990); format: functional, cell-based
[20] = alpha-synuclein stem-loop luciferase translation blockers – H4 neuroglioma cells, luminescence, confirmation (AID 1988); format: functional, cell-based
[21] = test system: A-375; experiment: MITF: Counter assay: A375 proliferation Measured in Cell-Based System Using Plate Reader - 2084-03_Inhibitor_Dose_DryPowder_Activity. [Related pubchem assays (depositor defined):AID488944]; format: functional; settings: Homo sapiens
[22] = viability of PTEN-deleted HCT116 cells – cell-based, HCT116 PTEN knockout, dose response (AID 1047); format: functional;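 note: HCT116 colon tumor cells with PTEN knocked out; cells exposed to compound for 60 hours before readout; potency for loss of cell viability measured by luminescence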
[23] = HIV-1 AD8 envelope cell-cell fusion blockers – cherry-pick, dose response (AID 652062); format: functional, cell-based;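 note: luciferase signal from cell-cell fusion driven by HIV-1 clade B AD8 Env; potency is for inhibitors of fusion seen as a drop in luminescence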
[24] = blockers of HIV-1 envelope-mediated cell-cell fusion – cherry-pick, dose response (AID 652057); format: functional, cell-based
[25] = test system: INS1; experiment: INS-1E survival protection against cytokine death – cell-based, luminescence, retest, dose response (AID 449756); format: functional;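 note: cell death triggered by IL-1 beta plus TNF-alpha plus IFN-gamma mixture; protective hits raise ATP signal compared with cytokine alone wells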
[26] = viability of HCT116 lacking mutant beta-catenin – cell-based, human colon tumor, dose response (AID 1045); format: functional;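 note: HCT116 colon tumor cells with beta catenin knocked out; cells exposed to compound for 60 hours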
[27] = viability loss in CEM21 cells – cell-based, CellTiter-Glo luminescence, cherry-picked, cytotoxicity control for viral fusion inhibitor project, dose response (AID 652042); format: functional;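 note: potency for signal decrease meaning cytotoxicity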
[28] = blockers of HIV-1 ZM109 envelope-driven cell-cell fusion – HeLa effector, CEM target cells, luciferase, cherry-pick, dose response (AID 652058); format: functional, cell-based;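 note: luciferase signal from HIV-1 Env mediated cell-cell fusion of effector and target cells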

Sequence of Glucose-6-phosphate 1-dehydrogenase (P11413 whole entry): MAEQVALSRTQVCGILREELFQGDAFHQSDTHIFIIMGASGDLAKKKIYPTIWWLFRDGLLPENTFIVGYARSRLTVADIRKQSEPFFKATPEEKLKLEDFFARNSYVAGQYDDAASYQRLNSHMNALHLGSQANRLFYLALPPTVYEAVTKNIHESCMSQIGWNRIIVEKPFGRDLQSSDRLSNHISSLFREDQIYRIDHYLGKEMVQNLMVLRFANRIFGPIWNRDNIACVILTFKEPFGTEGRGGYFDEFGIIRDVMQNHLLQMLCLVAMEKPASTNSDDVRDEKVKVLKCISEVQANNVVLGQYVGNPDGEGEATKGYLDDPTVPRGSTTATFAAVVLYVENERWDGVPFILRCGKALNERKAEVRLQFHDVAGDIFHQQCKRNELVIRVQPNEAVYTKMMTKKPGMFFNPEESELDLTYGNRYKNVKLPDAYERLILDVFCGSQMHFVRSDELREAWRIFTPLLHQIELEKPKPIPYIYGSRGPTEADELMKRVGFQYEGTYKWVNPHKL

O=C(O)c1cc(N2C(=O)C=CC2=O)cc(N2C(=O)C=CC2=O)c1
IC50 [1]: 61.8 µM (inactive)
IC50 [2]: 26.9 µM (inactive)
IC50 [3]: 13.7 µM (active)
IC50 [4]: 19.6 µM (active)
AC50 [5]: 19 µM (active)
AC50 [6]: 6.9 µM (active)
IC50 [7]: > 66.6 µM (inactive)
AC50 [8]: > 350 µM (inactive)
IC50 [9]: 12.3 µM (inactive)
IC50 [10]: 19.7 µM (active)
AC50 [11]: 94.5 µM (active)

O=C(C1CCCCC1)N1CCN(c2ccccn2)CC1
AC50 [12]: 398 nM (active)

COc1cc([N+](=O)[O-])cc(/C=N/NC(=O)c2ccc(NC(=O)c3ccc(C)cc3)cc2)c1O
IC50 [13]: 6.36 µM (active)
IC50 [14]: > 80 µM (inactive)
EC50 [15]: 2.62 µM (active)
EC50 [16]: 1.01 µM (inconclusive)
AC50 [17]: 1.55 µM (active)
EC50 [18]: 1.49 µM (active)
EC50 [19]: 2.62 µM (active)
EC50 [20]: 1.88 µM (active)

CC1CCC(C(C)C)C(OC(=O)Cn2c(-c3ccccc3)[n+](C)c3ccccc32)C1 (stereo not given)
AC50 [21]: 41.3 µM (active)
EC50 [22]: 3.06 µM (active)
AC50 [17]: 2.37 µM (active)
AC50 [23]: 5.44 µM (active)
AC50 [24]: 6.82 µM (active)
AC50 ([25]; Rattus norvegicus, INS1): 3.2 µM (active)
AC50 ([25]; ins1): 2.71 µM (active)
EC50 [26]: 2.97 µM (active)
AC50 [27]: 8.36 µM (active)
AC50 [28]: 4.62 µM (active)
